# Results from patent US20100087516A1, “ANTIBACTERIAL MACROLACTIN A THAT BACILLUS POLYFERMENTICUS KJS-2 PRODUCED IN” (priority 2007, published 2010).
# Read-outs that look alike come from different tables or passages of the source.
# Assays:
# [1] = system: Herpes simplex; details: cited from earlier work
# [2] = system: Bacillus subtilis 168; assay: Antibiotic activity test of HPLC fractions of the culture medium; assay type: cell-based
# Protocol: In order to purify the antibiotic substance produced by strain Bacillus polyfermenticus KJS-2, the seed culture of the strain was diluted into 3 L of TSB medium (TSB agar: Tryptone 17 g, Soytone 3 g, Dextrose 2.5 g, NaCl 5 g, Dipotassium Phosphate 2.5 g, pH 6.8 to 72 to a final concentration of 4% and was cultured for 2.5 days (30° C., 200 rpm, 1 vvm, pH6.8). The culture medium was extracted with […] and analyzed by HPLC under the conditions using a solvent of Step 2 of Example 1, and each peak was fractionated as in FIG. 4. Each fraction was tested for antibiotic activity against Escherichia coli, Bacillus subtilis 168 and Vancomycin-resistant Enterococci. […] FIG. 5 below is the analysis of fraction 1 of FIG. 4 by LC/Mass under the same conditions of Step 2 of Example 1, and the purification was to a purity of 94.63%.
# [3] = system: methicillin-resistant Staphylococcus aureu (MRSA); details: cited from earlier work
# [4] = system: 11 VRE strains, clinically isolated; assay: Minimal inhibitory concentration (MIC>90) in MH II medium; assay type: cell-based, vancomycin-resistant enterococci
# Protocol: The MIC (minimal inhibitory concentration) against VRE and MRSA was measured to test antibiotic activity of Macrolactin A produced by Bacillus polyfermenticus KJS-2, which is the strain of the present invention, against the two strains. The strains used for the experiment were 11 VRE strains and 13 MRSA strains, which were clinically isolated. Each strain used for the experiment was cultured in MH II medium at 200 rpm for 6 hours at 37° C., the absorbance of the medium measured at OD600nm using a UV detector, and then 1 ml aliquot of the medium was spread over MH II agar medium and incubated for 16 hours at 37° C. The number of colonies formed on the agar medium after 16 hours of incubation was counted. Each strain used for experiment was cultured in MH II medium at 200 rpm for 6 hours at 37° C., and the absorbance of the medium was measured at OD600nm using a UV detector. The number of cells were calculated based on the ratio of the number of colonies to the absorbance of the medium, and measured by the above process. Each culture medium was diluted to the final cell concentration of 0.25*10^7 cfu/ml and Macrolactin A was dissolved in the solvent DMSO, while ampicillin, teycoplanin, vancomycin and methillin were dissolved in water. To measure the MIC of Macrolactin A or of the four antibiotics, the mixture of the materials listed in Table 5 and Macrolactin A or the mixture of the materials listed in Table 6 and each of the four antibiotics, respectively in a 500 μl eppendorff tub, was incubated at 200 rpm for 16 hours at 37° C., and then absorbance was measured by a UV/Visible Light detector at 600 nm using a Fluorescence Multi-Detection Reader.
# [5] = system: B16-F10 murine melanoma cancer cell; details: cited from earlier work
structure (smiles),measurement,setting,value
CC1CCC/C=C/C=C/C(O)CC(O)C/C=C\C=C\C(O)C/C=C/C=C\C(=O)O1 (stereo not drawn) [Macrolactin A],antiviral activity against Herpes simplex,[1],antiviral activity
same,antibiotic activity against Bacillus subtilis 168,[2],excellent antibiotic activity
same,antibiotic activity against Bacillus subtilis 168,[2]; listed as fraction 1,had antibiotic activity
same,antibiotic activity against MRSA,[3],antibiotic activity only against MRSA
same,activity relative to teycoplanin (average MIC>90),[4]; 11 VRE strains,4 times
same,average MIC>90,[4]; Average of the 11 VRE strains,31.25 mg/L
same,MIC>90,[4]; VRE1,31.25 mg/L
same,MIC>90,[4]; VRE2,31.25 mg/L
same,MIC>90,[4]; VRE3,31.25 mg/L
same,MIC>90,[4]; VRE4,31.25 mg/L
same,MIC>90,[4]; VRE5,15.63 mg/L
same,MIC>90,[4]; VRE6,31.25 mg/L
same,MIC>90,[4]; VRE7,31.25 mg/L
same,MIC>90,[4]; VRE9,31.25 mg/L
same,MIC>90,[4]; VRE10,31.25 mg/L
same,MIC>90,[4]; VRE914,62.5 mg/L
same,MIC>90,[4]; VRE915,15.63 mg/L
same,cytotoxicity on the B16-F10 murine melanoma cancer cell,[5],shows cytotoxicity
